# Experimental data from publication PMC9525345, “Hypoalbuminemia affects the spatio-temporal tissue distribution of ochratoxin A in liver and kidneys: consequences for organ toxicity” (Archives of Toxicology, 2022).
# Like-named read-outs stand apart in the source and are kept apart here.
# What was measured:
# [1] = system: wild-type and albumin knockout mice; experiment: Ochratoxin A toxicity experiment: kidney (histopathology, creatinine, BUN, CD45); type: in vivo; details: 24 h
# Protocol: (§1) To study the role of albumin in OTA toxicity, 8-week-old female homozygote and heterozygote albumin-deficient mice, and corresponding C57BL/6 J wild-type controls were challenged intravenously with 10 mg/kg OTA (#10470691, Fisher Scientific) dissolved in 0.1 M NaHCO3, pH 7.4, with an application volume of 2 ml/kg. On day 1 after OTA injection, heart blood samples were collected, and plasma was separated according to a standard protocol (Gianmoena et al. [2021]). In addition, tissue specimens were collected from the left liver lobe and kidneys, fixed for 2 days in 4% paraformaldehyde (#P087-5, Roth), and finally embedded in paraffin for histopathology and immunohistochemistry analyses (Schneider et al. [2021b]).
# (§2) Plasma concentration of albumin, creatinine, and blood urea nitrogen (BUN), as well as activities of alanine transaminase (ALT), and aspartate transaminase (AST) were analyzed by the Piccolo Xpress Chemistry Analyzer (Hitado, Germany) using the Piccolo general chemistry 13 panel (#AB-114-400-0029, Hitado, Germany).
# (§3) Hematoxylin and eosin (H&E) staining was performed in 4 µm-thick paraffin-embedded liver and kidney tissue sections as previously described (Campos et al. [2020]).
# (§4) Visualization of albumin protein expression in the liver tissue, and immune cell infiltration in the liver and kidney tissues was done by immunohistochemistry using an autostainer (Discovery Ultra Automated Slide Preparation System, Roche, Germany) (Ghallab et al. [2021b]). For this purpose, 4 µm-thick paraffin-embedded liver or kidney tissue sections were incubated with primary antibodies against albumin (# ab192603, abcam), CD45 (a pan leukocyte marker; #550,539, BD Bioscience), and FSP1 (a marker of inflammatory subpopulation of macrophages (Österreicher et al. [2011]) (#ab197896, Abcam). Dilutions of the primary antibodies as well as the used secondary antibodies are described in Table 2. Following staining, entire slides were scanned (Axio Scan.Z1, Zeiss, Germany) and representative images are shown in the results section.
# mice [2] = system: mice; set-up: method as in Bendele et al. [1985]; Kanisawa and Suzuki [1978]; details: mice-fed diets containing 40 ppm, equivalent to 5.6 mg/kg b.w. per day; ref Bendele et al. [1985]; Kanisawa and Suzuki [1978]; cited from earlier work
# [3] = set-up: method as in O'Brien and Dietrich [2005]; Ringot et al. [2006]; details: mice, per os; ref O'Brien and Dietrich [2005]; Ringot et al. [2006]; cited from earlier work
# [4] = set-up: method as in O'Brien and Dietrich [2005]; Ringot et al. [2006]; details: human; ref O'Brien and Dietrich [2005]; Ringot et al. [2006]; cited from earlier work
# mice [5] = system: mice; set-up: method as in IARC [1993]; details: ref IARC [1993], cited from earlier work
# HSA = system: HSA; set-up: method as in Poor et al. [2013]; Sueck et al. [2018]; details: ref Poor et al. [2013], Sueck et al. [2018]; cited from earlier work
# [6] = system: wild-type and albumin knockout mice; experiment: Ochratoxin A toxicity experiment: liver (histopathology, ALT, AST); type: in vivo; details: 24 h; for liver histopathology: 10 mg/kg i.v. single dose
# Protocol: as §1, §2, §3, §4
# [7] = Intravital two-photon imaging of OTA transport in the kidneys; type: in vivo, mice; details: 5 mg/kg tail vein bolus
# Excerpt: (§5) Intravital imaging of OTA transport in the livers and the kidneys of anesthetized wild-type and albumin knockout mice was done using an inverted two-photon microscope (LSM MP7, Zeiss, Germany). Details of the surgical preparation of the mice and exposure of the liver and the kidneys for imaging were previously described (Ghallab et al. [2021a]; Reif et al. [2017]). Tissue morphology was visualized by intravenous administration of the mitochondrial membrane potential marker tetramethylrhodamine ethyl ester (TMRE) (#T669, ThermoFisher Scientific) approximately 10 min before recording (Table 2). To image its transport kinetics in the liver and kidneys, a bolus of OTA (5 mg/kg) was administered via a tail vein catheter (SAI-infusion, IL, USA) within approximately 20 s after the onset of recording; the first few frames recorded prior to the OTA administration served to detect the basal tissue auto-fluorescence (Table 2). The mice were kept under controlled ambient temperature conditions of 36 °C, with exposure to a maintenance isoflurane inhalation anesthesia during the entire recording session.
# (§6) During image processing, rigid body registration was performed using StackReg (Thévenaz et al. [1998]) to compensate for tissue movement in the recorded time series. From these stabilized videos, 2D projections were generated using average and standard deviation operators. The pixel classification and autocontext workflows of the interactive image segmentation software ilastik (version 1.3.3post1) (Berg et al. [2019]) were used for compartment segmentation in the 2D projections of liver and kidney. The compartments considered are sinusoids, hepatocyte cytoplasm and bile canaliculi in the liver, as well as inter-tubular capillaries, renal tubular lumen, and the tubular epithelial cells in the kidney. Mean raw OTA intensities were measured per compartment and frame. In addition, for the kidney, mean OTA intensities per tubule were measured based on the signal in the TMRE positive cell compartment, and tubules were subsequently grouped into two sets using k-means clustering based on their maximum mean OTA intensity over time.
# (§7) For the calculation of the elimination half-life, Microsoft excel was used. First, the decadic logarithm of the intensity was plotted against the time. Then, the linear declining portion of the curve was selected manually and used for construction of a trend line. Next, the slope of the trendline was multiplied by 2.303 to convert the decadic to the natural logarithm and enable usage of the following formulas: • kel = -slope (Certara knowledgebase) • T ½ = ln (2) /kel (Certara knowledgebase)
# [8] = Intravital two-photon imaging of OTA transport in the liver; type: in vivo, mice
# Excerpt: as §5, §6, §7
# [9] = set-up: method as in Perry et al. [2003]; details: weak organic acid; ref Perry et al. [2003]; cited from earlier work
# [10] = set-up: method as in EFSA [2020]; details: ref EFSA [2020]; cited from earlier work
# [11] = set-up: method as in Anzai et al. [2010]; Ringot et al. [2006]; details: ref Anzai et al. [2010]; Ringot et al. [2006]; cited from earlier work
# [12] = heterozygous albumin knockout mice
# [13] = homozygous albumin knockout mice
compound,measurement,setting,value
"C[C@@H]1Cc2c(Cl)cc(C(=O)N[C@@H](Cc3ccccc3)C(=O)O)c(O)c2C(=O)O1 [OTA, Ochratoxin A]","blood biomarkers of kidney damage, creatinine and urea nitrogen","[1]; between the three mouse models, 10 mg/kg i.v.",no significant differences
same,immune cell infiltration in kidney (CD45),"[1]; wild type and albumin knockout mice, 10 mg/kg i.v.",no obvious immune cell infiltration
same,macroscopical or histopathological alterations in kidney tissue,"[1]; wild-type, heterozygous and homozygous knockout mice, 10 mg/kg i.v. single dose",did not cause obvious macroscopical or histopathological alterations in the kidney tissue
same,tumor induction in chronic toxicity studies,mice [2],induced liver and kidney tumors
same,Half-life in blood t1/2,[3],40 h
same,Half-life in blood t1/2,[4],35.5 days
same,Acute toxicity LD50,mice [5]; i.v.,25.7 to 33.8 mg/kg
same,Acute toxicity LD50,mice [5]; p.o.,46 to 58.3 mg/kg
same,Albumin binding K,HSA,~10^7
same,Albumin binding log K,HSA,7.0 – 7.6
same,liver histopathology,[6]; [12],massive pericentral necrosis and hemorrhage
same,blood biomarkers of liver injury ALT and AST,"[6]; heterozygous albumin-deficient mice compared to wild-type and homozygous, 10 mg/kg i.v.",significantly increased values
same,liver histopathology,[6]; [13],appeared smaller compared to the heterozygous animals
same,liver histopathology,[6]; wild-type mice,small clusters of dead cells in the pericentral compartment of the liver lobule
same,OTA signal in tubular lumen and tubular epithelial cells,[7]; [12],a longer duration and higher intensity of the OTA signal in the tubular epithelial cells
same,OTA signal in tubular lumen and tubular epithelial cells,[7]; [13],rapid filtration into the renal tubular lumen and enrichment into the tubular epithelial cells
same,half-life,"[7]; mouse, renal blood capillaries (kidney), intravenous, homozygous albumin knockout mice, read-out: half-life of OTA signal in renal blood capillaries",~0.28 min
same,OTA signal in tubular lumen and tubular epithelial cells,[7]; wild-type mice,"only a weak, transient increase was seen in the lumen and cytoplasm of the tubular epithelial cells"
same,transport of OTA to hepatocytes and bile canaliculi,"[8]; heterozygous albumin knockout mice, 5 mg/kg tail vein bolus",transient increases in hepatocytes and enrichment in bile canaliculi
same,disappearance of OTA from blood after bolus injection,[8]; [13],completely disappeared from the blood of homozygous albumin knockout mice within a minute
same,transport of OTA to hepatocytes and bile canaliculi,"[8]; homozygous albumin knockout mice, 5 mg/kg tail vein bolus",massively increased canalicular secretion with almost no increase in the hepatocytes
same,half-life,"[8]; mouse, sinusoidal blood (liver), intravenous, homozygous albumin knockout mice, 5 mg/kg tail vein bolus, read-out: half-life of OTA signal in sinusoidal blood",~0.22 min
same,transport of OTA to hepatocytes and bile canaliculi,"[8]; wild-type mice, 5 mg/kg tail vein bolus",No transport of OTA to hepatocytes and bile canaliculi was detectable
same,"pKa, carboxyl group",[9],4.3
same,"pKa, phenolic hydroxyl group",[9],7.2
same,Log Pow,[10],4.37
same,plasma protein-binding capacity,[11],> 99%
